One compound from ChEMBL document CHEMBL4680318, “(S)-Erypoegin K, an isoflavone isolated from Erythrina poeppigiana, is a novel inhibitor of topoisomerase IIα: Induction of G2 phase arrest in human gastric cancer cells” (Bioorg Med Chem, 2021) can be followed below.

For assay [1], the system named is MCF7. As to the kind of experiment: Growth inhibition of human MCF7 cells measured after 48 hrs by sulforhodamine B assay. Type of assay: functional. For orientation: In SRB staining, fixed cells bind dye roughly in proportion to their protein.
The subject of assay [2] is U-251. Put plainly: Growth inhibition of human U-251 cells measured after 48 hrs by sulforhodamine B assay. Format: functional.
Assay [3] relates to SF-268. Put plainly: Growth inhibition of human SF-268 cells measured after 48 hrs by sulforhodamine B assay. Format: functional.
In assay [4] the test system is SF-539. As to the kind of experiment: Growth inhibition of human SF-539 cells measured after 48 hrs by sulforhodamine B assay. Type of assay: functional.
Assay [5] relates to SNB-75. Put plainly: Growth inhibition of human SNB-75 cells measured after 48 hrs by sulforhodamine B assay. Type of assay: functional.
For assay [6], the system named is KM12. Put plainly: Growth inhibition of human KM12 cells measured after 48 hrs by sulforhodamine B assay. Format: functional.
For assay [7], the system named is NCI-H23. Put plainly: Growth inhibition of human NCI-H23 cells measured after 48 hrs by sulforhodamine B assay. Type of assay: functional.
For assay [8], the system named is NCI-H226. Put plainly: Growth inhibition of human NCI-H226 cells measured after 48 hrs by sulforhodamine B assay. Format: functional.
Assay [9] has as its system St-4. As to the kind of experiment: Growth inhibition of human St-4 cells measured after 48 hrs by sulforhodamine B assay. Type of assay: functional.
Assay [10] concerns MKN-28. As to the kind of experiment: Growth inhibition of human MKN-28 cells measured after 48 hrs by sulforhodamine B assay. Type of assay: functional.
Assay [11] deals with MKN-45. Put plainly: Growth inhibition of human MKN-45 cells measured after 48 hrs by sulforhodamine B assay. Format: functional.
In assay [12] the test system is GCIY. Put plainly: Induction of apoptosis in human GCIY cells assessed as activation of caspase 3 measured after 5 to 35 hrs by fluorescence assay. Particulars: dose 1-10 µM, time 5-35 hrs. Format: functional, cell-based.
The subject of assay [13] is GCIY. As to the kind of experiment: Induction of apoptosis in human GCIY cells assessed as activation of caspase 9 at 1 to 10 uM by fluorescence assay. The following applies: dose 1-10 µM, time 5-35 hrs, TDE = time-dependent effect. Format: functional, cell-based.
Assay [14] concerns MKN-1. Put plainly: Induction of apoptosis in human MKN-1 cells assessed as activation of caspase 3 at 1 to 10 uM by fluorescence assay. Type of assay: functional, cell-based. The following applies: dose 1-10 µM, time 5-35 hrs, TDE = time-dependent effect.
Assay [15] deals with GCIY. As to the kind of experiment: Cell cycle arrest in human GCIY cells assessed as accumulation at G0/G1 phase at 0.1 uM measured after 24 hrs by propidium iodide staining based Muse cell analyzer (reference value: 43 +/- 2.2 %). Type of assay: functional.
The subject of assay [16] is GCIY. As to the kind of experiment: Cell cycle arrest in human GCIY cells assessed as accumulation at G0/G1 phase at 0.3 uM measured after 24 hrs by propidium iodide staining based Muse cell analyzer (reference value: 43 +/- 2.2 %). Format: functional.
Assay [17] relates to GCIY. As to the kind of experiment: Cell cycle arrest in human GCIY cells assessed as accumulation at S phase at 0.3 uM measured after 24 hrs by propidium iodide staining based Muse cell analyzer (reference value: 25.7 +/- 0.7 %). Format: functional.
Assay [18] relates to MKN-1. As to the kind of experiment: Cell cycle arrest in human MKN-1 cells assessed as accumulation at G2/M phase at 0.1 uM measured after 24 hrs by propidium iodide staining based Muse cell analyzer (reference value: 33.2 +/- 0.5 %). Format: functional.
In assay [19] the test system is MKN-1. Put plainly: Cell cycle arrest in human MKN-1 cells assessed as accumulation at S phase at 0.3 uM measured after 24 hrs by propidium iodide staining based Muse cell analyzer (reference value: 15.5 +/- 0.2 %). Format: functional.
The subject of assay [20] is GCIY. As to the kind of experiment: Antitumor activity against human GCIY cells xenografted in KSN/Slc nude mouse assessed as reduction in tumor size at 40 mg/kg, ip administered twice a week for 4 weeks starting from day 4 post inoculation by vernier caliper method. Format: functional, organism-based. In general terms: Xenograft models place foreign cells or tissue in a host animal.

Molecules are shown by their SMILES. Activity calls are given as the source filed them. The calls are words filed in the database; no cut-off is given here.

As usually defined, the GI50 is the concentration at which growth is held to half of that of the control. As to `CC(C)(O)[C@@H]1Cc2c(cc(O)c3c(=O)c(-c4ccc(O)cc4)coc23)O1`, the GI50 in [1] was 0.138 µM; in assay [2], 0.331 µM; in assay [3], 0.457 µM; in assay [4], 0.347 µM; in assay [5], 0.537 µM; in assay [6], 0.813 µM. For the same compound, the GI50 in assay [7] was 0.38 µM; in assay [8], 0.295 µM; in assay [9] it was 6.03 µM; in [10], 7.08 µM; in [11], 0.347 µM. The Activity result was “Dose-dependent effect” in assay [12]; “Tde” in [13]; “Tde” in assay [14]; 34.6% in assay [15]; 2.8% in [16]; 7% in assay [17]. In addition, the figures for the Activity in assay [18] and in assay [19] were 60.8% and 9.5%, respectively. Also, the result in assay [20] was Active.
